According to patent publication US20250352541A1, “THERAPEUTIC FOR CANCER REFRACTORY TO IMMUNE CHECKPOINT INHIBITOR” (Sumitomo Pharma Co., Ltd., priority 2022, published 2025):

Experiments:
CHK1 = CHK1 (Homo sapiens (Human), UniProt O14757); test: CHK1 inhibitory activity test (IMAP TR-FRET)
hERG current = hERG current (Homo sapiens (Human), UniProt Q12809); test: hERG current blocking test; settings: for hERG/CHK1: IC50 of hERG divided by IC50 of CHK1 inhibition; for IC50: read-out: hERG inhibition IC50, hERG expressing CHO cells
CYP3A4 = CYP3A4 (Homo sapiens (Human), UniProt P08684); test: CYP3A4 MBI and enzyme inactivation clearance evaluation; format: in vitro ADME; settings: for Factor of change in IC50 value: human liver microsome, pre-incubation in the presence of NADPH
Method: The effect and mode of inhibition of the test compound on CYP3A4 were evaluated using a human liver microsome as an enzyme source and midazolam or testosterone as a substrate. […] The IC50 value was calculated from a concentration plot.

ES-2 cells = test: Cell growth suppression experiment; format: cell-based
Method: ES-2 cells were obtained from the American Type Culture Collection (ATCC). These cells were cultured at 37° C. in the presence of 5% CO2 in a 10% fetal bovine serum, 1% penicillin/streptomycin containing McCoy's 5a medium.
500 cells were seeded for each well in a 384-well plate, and the evaluated compound was added so that the final concentration of DMSO would be 0.1% to culture the cells for 2 days. After completion of the culture, the cell viability rate was calculated using CellTiter-Glo® 3D Reagent (Promega, G968B).
The results of cell growth suppression test on representative compounds of the present disclosure are listed in the following table based on the ranking of I, IT, III, IV, and V (1000 nM<I, 1000 nM>TI>300 nM, 300 nM>III>100 nM, 100 nMV>IV>30 nM, 30 nM>V).

Chain of CYP3A4 (P08684 whole entry): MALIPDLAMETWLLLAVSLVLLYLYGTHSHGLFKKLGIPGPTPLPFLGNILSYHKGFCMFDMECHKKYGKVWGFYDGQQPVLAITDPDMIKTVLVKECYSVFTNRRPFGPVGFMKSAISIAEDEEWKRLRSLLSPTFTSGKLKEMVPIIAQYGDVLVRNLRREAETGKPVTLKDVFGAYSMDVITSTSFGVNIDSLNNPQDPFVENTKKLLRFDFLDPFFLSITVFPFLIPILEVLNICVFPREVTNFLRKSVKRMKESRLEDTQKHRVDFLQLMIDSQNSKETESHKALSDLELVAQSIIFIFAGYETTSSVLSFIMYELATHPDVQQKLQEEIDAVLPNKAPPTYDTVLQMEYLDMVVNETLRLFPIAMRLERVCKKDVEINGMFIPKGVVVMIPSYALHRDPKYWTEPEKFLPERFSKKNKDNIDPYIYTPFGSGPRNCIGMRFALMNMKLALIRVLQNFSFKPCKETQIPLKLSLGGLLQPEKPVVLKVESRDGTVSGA
Chain of hERG current (Q12809 whole entry): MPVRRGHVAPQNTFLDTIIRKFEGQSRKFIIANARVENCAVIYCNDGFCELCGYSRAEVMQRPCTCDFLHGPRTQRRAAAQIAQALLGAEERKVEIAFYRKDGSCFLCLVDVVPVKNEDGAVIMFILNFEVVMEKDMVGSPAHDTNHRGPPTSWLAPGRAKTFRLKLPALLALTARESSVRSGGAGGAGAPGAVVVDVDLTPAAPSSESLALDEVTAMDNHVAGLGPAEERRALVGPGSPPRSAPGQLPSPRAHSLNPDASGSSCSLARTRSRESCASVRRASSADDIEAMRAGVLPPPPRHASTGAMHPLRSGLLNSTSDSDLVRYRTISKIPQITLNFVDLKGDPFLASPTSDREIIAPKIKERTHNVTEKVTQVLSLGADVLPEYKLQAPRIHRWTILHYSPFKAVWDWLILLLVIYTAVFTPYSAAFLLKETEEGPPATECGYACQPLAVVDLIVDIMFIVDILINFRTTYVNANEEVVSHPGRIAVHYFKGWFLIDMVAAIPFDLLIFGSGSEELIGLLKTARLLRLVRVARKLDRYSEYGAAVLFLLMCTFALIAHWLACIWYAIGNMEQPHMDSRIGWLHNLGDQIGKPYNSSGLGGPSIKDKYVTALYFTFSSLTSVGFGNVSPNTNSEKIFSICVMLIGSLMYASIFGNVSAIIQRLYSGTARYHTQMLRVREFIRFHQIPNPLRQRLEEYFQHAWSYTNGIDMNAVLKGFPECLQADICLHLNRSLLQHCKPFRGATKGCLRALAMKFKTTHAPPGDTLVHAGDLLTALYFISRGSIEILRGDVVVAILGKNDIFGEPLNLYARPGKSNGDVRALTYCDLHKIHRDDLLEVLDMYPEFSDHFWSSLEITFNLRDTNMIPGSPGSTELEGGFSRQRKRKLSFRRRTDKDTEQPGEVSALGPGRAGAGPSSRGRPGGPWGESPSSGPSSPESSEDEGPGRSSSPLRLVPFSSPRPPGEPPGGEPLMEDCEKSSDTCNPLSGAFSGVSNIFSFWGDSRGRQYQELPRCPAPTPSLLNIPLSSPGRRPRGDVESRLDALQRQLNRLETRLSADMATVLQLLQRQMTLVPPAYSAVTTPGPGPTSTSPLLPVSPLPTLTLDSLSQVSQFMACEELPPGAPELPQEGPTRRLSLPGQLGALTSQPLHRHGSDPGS
Chain of CHK1 (O14757 whole entry): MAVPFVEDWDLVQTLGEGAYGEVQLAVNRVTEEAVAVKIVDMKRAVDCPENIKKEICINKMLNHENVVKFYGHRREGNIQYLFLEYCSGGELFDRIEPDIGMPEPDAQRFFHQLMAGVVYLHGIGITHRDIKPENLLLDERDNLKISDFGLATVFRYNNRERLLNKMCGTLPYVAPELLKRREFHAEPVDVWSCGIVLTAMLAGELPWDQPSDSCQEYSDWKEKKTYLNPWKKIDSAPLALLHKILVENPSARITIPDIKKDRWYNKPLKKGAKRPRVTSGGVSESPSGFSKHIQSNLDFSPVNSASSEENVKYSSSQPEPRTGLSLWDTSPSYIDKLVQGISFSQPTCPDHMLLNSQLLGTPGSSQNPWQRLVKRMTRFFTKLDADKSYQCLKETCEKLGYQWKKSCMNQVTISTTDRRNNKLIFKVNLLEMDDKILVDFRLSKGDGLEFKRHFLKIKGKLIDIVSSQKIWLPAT

Q: Which results are given for COc1cncc(OC[C@@H]2CNCCO2)c1-c1cc(Nc2cnc(C#N)cn2)n[nH]1 (stereo in doubt) [Example 12, 5-[(5-{3-methoxy-5-[(morpholin-2-yl)methoxy]pyridin-4-yl}-1H-pyrazol-3-yl)amino]pyrazine-2-carbonitrile]?
A: IC50 (CHK1): 0.34 nM; effect of suppressing CHK1 activity compared with prexasertib (CHK1): more potent effect of suppressing CHK1 activity than prexasertib; hERG/CHK1 (hERG current): 9118; IC50 (hERG current): 3100 nM

Q: For COc1cncc(OC[C@H]2CNCCO2)c1-c1cc(Nc2cnc(C#N)cn2)n[nH]1 (stereo in doubt) [Example 13, 5-[(5-{3-methoxy-5-[(morpholin-2-yl)methoxy]pyridin-4-yl}-1H-pyrazol-3-yl)amino]pyrazine-2-carbonitrile], which IC50 (CHK1) is on record?
A: Its IC50 is 0.74 nM.

Q: And the hERG/CHK1 (hERG current)?
A: Its hERG/CHK1 is <3649.

Q: And the IC50 (hERG current)?
A: Its IC50 is < 2700 nM.

Q: COc1nccc(OCC2(CO)CNC2)c1-c1cc(Nc2cnc(C#N)cn2)n[nH]1 [Example 8, 5-{[5-(4-{[3-(hydroxymethyl)azetidin-3-yl]methoxy}-2-methoxypyridin-3-yl)-1H-pyrazol-3-yl]amino}pyrazine-2-carbonitrile] was tested. Which “Factor of change in IC50 value” (CYP3A4) did it give?
A: Its value is “Not Detected”.

Q: And the IC50 (CHK1)?
A: Its IC50 is < 0.1 nM.

Q: What about the “effect of suppressing CHK1 activity compared with prexasertib” value (CHK1) of the same molecule?
A: The value was “more potent effect of suppressing CHK1 activity than prexasertib”.

Q: And the hERG/CHK1 (hERG current)?
A: The hERG/CHK1 was >1000000.

Q: What about the IC50 (hERG current) of the same molecule?
A: The IC50 was > 100000 nM.

Q: Which IC50 (CHK1) does the source give for COc1ccnc(OCCCN)c1-c1cc(Nc2cnc(C(F)(F)F)cn2)n[nH]1 [Example 16, N-{5-[2-(3-aminopropoxy)-4-methoxypyridin-3-yl]-1-H-pyrazol-3-yl}-5-(trifluoromethyl)pyrazin-2-amine] here?
A: The IC50 was 3.04 nM.

Q: And the hERG/CHK1 (hERG current)?
A: Its hERG/CHK1 is <888.

Q: And the IC50 (hERG current)?
A: Its IC50 is < 2700 nM.

Q: Which “cell growth suppression effect compared with prexasertib” value (ES-2 cells) does the source give for COc1cncc(OC[C@]2(F)CCNC2)c1-c1cc(Nc2cnc(C#N)cn2)n[nH]1 [Example 20, (S)-5-[(5-{3-[(3-fluoropyrrolidin-3-yl)methoxy]-5-methoxypyridin-4-yl}-1H-pyrazol-3-yl)amino]pyrazine-2-carbonitrile] here?
A: The value was “excellent cell growth suppression effect that is equivalent to that of prexasertib”.

Q: What about the IC50 (CHK1) of the same molecule?
A: The IC50 was 0.34 nM.

Q: What about the “effect of suppressing CHK1 activity compared with prexasertib” value (CHK1) of the same molecule?
A: The value was “more potent effect of suppressing CHK1 activity than prexasertib”.

Q: What about the hERG/CHK1 (hERG current) of the same molecule?
A: Its hERG/CHK1 is 11176.

Q: What about the IC50 (hERG current) of the same molecule?
A: Its IC50 is 3800 nM.

Q: Which “cell growth suppression effect compared with prexasertib” value (ES-2 cells) does the source give for COc1cncc(OC[C@@]2(F)CCNC2)c1-c1cc(Nc2cnc(C#N)cn2)n[nH]1 [Example 22, (R)-5-[(5-{3-[(3-fluoropyrrolidin-3-yl)methoxy]-5-methoxypyridin-4-yl}-1H-pyrazol-3-yl)amino]pyrazine-2-carbonitrile] here?
A: Its value is “excellent cell growth suppression effect that is equivalent to that of prexasertib”.

Q: And the IC50 (CHK1)?
A: Its IC50 is 0.24 nM.

Q: What about the “effect of suppressing CHK1 activity compared with prexasertib” value (CHK1) of the same molecule?
A: Its value is “more potent effect of suppressing CHK1 activity than prexasertib”.

Q: And the hERG/CHK1 (hERG current)?
A: The hERG/CHK1 was 12500.

Q: And the IC50 (hERG current)?
A: The IC50 was 3000 nM.

Q: How did the “cell growth suppression effect compared with prexasertib” value (ES-2 cells) turn out when COc1cncc(OCC2(C)CNC2)c1-c1cc(Nc2cnc(C#N)cn2)n[nH]1 [Example 25, 5-[(5-{3-methoxy-5-[(3-methylazetidin-3-yl)methoxy]pyridin-4-yl}-1H-pyrazol-3-yl)amino]pyrazine-2-carbonitrile] was run?
A: The value was “excellent cell growth suppression effect that is equivalent to that of prexasertib”.

Q: And the IC50 (CHK1)?
A: Its IC50 is 0.74 nM.

Q: For COc1cncc(OCC2(C(F)F)CNC2)c1-c1cc(Nc2cnc(C#N)cn2)n[nH]1 [Example 26, 5-{[5-(3-{[3-(difluoromethyl)azetidin-3-yl]methoxy}-5-methoxypyridin-4-yl)-1H-pyrazol-3-yl]amino}pyrazine-2-carbonitrile], which “cell growth suppression effect compared with prexasertib” value (ES-2 cells) is on record?
A: The value was “excellent cell growth suppression effect that is equivalent to that of prexasertib”.

Q: What about the IC50 (CHK1) of the same molecule?
A: The IC50 was 0.14 nM.

Q: What about the “effect of suppressing CHK1 activity compared with prexasertib” value (CHK1) of the same molecule?
A: Its value is “more potent effect of suppressing CHK1 activity than prexasertib”.

Q: What does the source list for COc1cncc(OC[C@@H](C)CN)c1-c1cc(Nc2cnc(C#N)cn2)n[nH]1 [Example 27]?
A: cell growth suppression effect compared with prexasertib (ES-2 cells): excellent cell growth suppression effect that is equivalent to that of prexasertib; IC50 (CHK1): 3.46 nM

Q: How did the “cell growth suppression effect compared with prexasertib” value (ES-2 cells) turn out when COc1cncc(OC[C@H](C)CN)c1-c1cc(Nc2cnc(C#N)cn2)n[nH]1 [Example 28] was run?
A: Its value is “excellent cell growth suppression effect that is equivalent to that of prexasertib”.

Q: And the IC50 (CHK1)?
A: Its IC50 is 0.5 nM.

Q: And the “effect of suppressing CHK1 activity compared with prexasertib” value (CHK1)?
A: Its value is “more potent effect of suppressing CHK1 activity than prexasertib”.

Q: What does the source list for COc1cncc(OC[C@@H](F)CN)c1-c1cc(Nc2cnc(C#N)cn2)n[nH]1 [Example 29, 5-[(5-{3-[(2S)-3-amino-2-fluoropropoxy]-5-methoxypyridin-4-yl}-1H-pyrazol-3-yl)amino]pyrazine-2-carbonitrile]?
A: cell growth suppression effect compared with prexasertib (ES-2 cells): excellent cell growth suppression effect that is equivalent to that of prexasertib; Factor of change in IC50 value (CYP3A4): Not Detected; IC50 (CHK1): 0.6 nM; inhibition at 0.0001 µM (CHK1; read-out: CHK1 inhibition % at 0.1 nM): < 5%; hERG/CHK1 (hERG current): 18667; IC50 (hERG current): 11200 nM

Q: With COc1cncc(OC[C@H](F)CN)c1-c1cc(Nc2cnc(C#N)cn2)n[nH]1 [Example 30, 5-[(5-{3-[(2R)-3-amino-2-fluoropropoxy]-5-methoxypyridin-4-yl}-1H-pyrazol-3-yl)amino]pyrazine-2-carbonitrile] as the molecule, how does the “cell growth suppression effect compared with prexasertib” value (ES-2 cells) read?
A: Its value is “excellent cell growth suppression effect that is equivalent to that of prexasertib”.

Q: What about the “Factor of change in IC50 value” (CYP3A4) of the same molecule?
A: The value was “Not Detected”.

Q: What about the IC50 (CHK1) of the same molecule?
A: Its IC50 is 0.26 nM.

Q: And the “effect of suppressing CHK1 activity compared with prexasertib” value (CHK1)?
A: Its value is “more potent effect of suppressing CHK1 activity than prexasertib”.

Q: And the hERG/CHK1 (hERG current)?
A: Its hERG/CHK1 is 40000.

Q: What about the IC50 (hERG current) of the same molecule?
A: Its IC50 is 10400 nM.

Q: CNCCCOc1cncc(OC)c1-c1cc(Nc2cnc(C#N)cn2)n[nH]1 [Example 31, 5-[(5-{3-methoxy-5-[3-(methylamino)propoxy]pyridin-4-yl}-1H-pyrazol-3-yl)amino]pyrazine-2-carbonitrile] was tested. Which “cell growth suppression effect compared with prexasertib” value (ES-2 cells) did it give?
A: Its value is “excellent cell growth suppression effect that is equivalent to that of prexasertib”.

Q: What about the IC50 (CHK1) of the same molecule?
A: Its IC50 is 0.75 nM.

Q: What does the source list for COc1cncc(O[C@H](C)C2CNC2)c1-c1cc(Nc2cnc(C#N)cn2)n[nH]1 [Example 33, 5-[(5-{3-[(1R)-1-(azetidin-3-yl)ethoxy]-5-methoxypyridin-4-yl}-1H-pyrazol-3-yl)amino]pyrazine-2-carbonitrile]?
A: cell growth suppression effect compared with prexasertib (ES-2 cells): excellent cell growth suppression effect that is equivalent to that of prexasertib; IC50 (CHK1): 0.69 nM

Q: What does the source list for CN[C@@H]1CC[C@@H](Oc2cncc(OC)c2-c2cc(Nc3cnc(C#N)cn3)n[nH]2)C1 [Example 35, 5-{[5-(3-methoxy-5-{[(1R,3R)-3-(methylamino)cyclopentyl]oxy}pyridin-4-yl)-1H-pyrazol-3-yl]amino}pyrazine-2-carbonitrile]?
A: cell growth suppression effect compared with prexasertib (ES-2 cells): excellent cell growth suppression effect that is equivalent to that of prexasertib; IC50 (CHK1): 0.62 nM

Q: For COc1cncc(O[C@H]2C[C@H](N)[C@H]3C[C@H]32)c1-c1cc(Nc2cnc(C#N)cn2)n[nH]1 [Example 36, 5-{[5-(3-{[(1R,2S,4S,5S)-4-aminobicyclo[3.1.0]hexan-2-yl]oxy}-5-methoxypyridin-4-yl)-1H-pyrazol-3-yl]amino}pyrazine-2-carbonitrile], which “cell growth suppression effect compared with prexasertib” value (ES-2 cells) is on record?
A: Its value is “excellent cell growth suppression effect that is equivalent to that of prexasertib”.

Q: And the IC50 (CHK1)?
A: Its IC50 is 0.73 nM.

Q: COc1ccnc(OCC2(CN)CC2)c1-c1cc(Nc2cnc(C#N)cn2)n[nH]1 [Example 37, 5-{[5-(2-{[1-(aminomethyl)cyclopropyl]methoxy}-4-methoxypyridin-3-yl)-1H-pyrazol-3-yl]amino}pyrazine-2-carbonitrile] was tested. Which “cell growth suppression effect compared with prexasertib” value (ES-2 cells) did it give?
A: The value was “excellent cell growth suppression effect that is equivalent to that of prexasertib”.

Q: What about the “inhibition of CYP3A4 based on MBI” value (CYP3A4) of the same molecule?
A: The value was “do not exhibit inhibition of CYP3A4 based on MBI”.

Q: What about the “Factor of change in IC50 value” (CYP3A4) of the same molecule?
A: Its value is “Not Detected”.

Q: And the IC50 (CHK1)?
A: Its IC50 is 0.32 nM.

Q: What about the “effect of suppressing CHK1 activity compared with prexasertib” value (CHK1) of the same molecule?
A: The value was “more potent effect of suppressing CHK1 activity than prexasertib”.

Q: What about the hERG/CHK1 (hERG current) of the same molecule?
A: Its hERG/CHK1 is <8438.

Q: What about the IC50 (hERG current) of the same molecule?
A: Its IC50 is < 2700 nM.

Q: Which results are given for COc1nccc(OCC2(CN)CC2)c1-c1cc(Nc2cnc(C#N)cn2)n[nH]1 [Example 38, 5-{[5-(4-{[1-(aminomethyl)cyclopropyl]methoxy}-2-methoxypyridin-3-yl)-1H-pyrazol-3-yl]amino}pyrazine-2-carbonitrile]?
A: cell growth suppression effect compared with prexasertib (ES-2 cells): excellent cell growth suppression effect that is equivalent to that of prexasertib; IC50 (CHK1): 0.7 nM
